# Compound: CC1=CC(=CC=C1)NC2=NC(=CS2)C3=CC=NC=C3 + CC(=O)c1c(C)c2cnc(Nc3ccc(N4CCNCC4)cn3)nc2n(C2CCCC2)c1=O [Palbociclib] (partner 0.5 µM)
# Experiment: relative viability (nuclei count vs DMSO), 5 days (fraction); higher = more cells survive
# Settings: first compound 0.08 µM
# Outline: (§1)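 After 5 days of treatment, lung cancer cells in 1536-well plates were fixed and stained in a single step (final 0.05% Triton X-100, 1% formaldehyde, 1 ug/ml Hoechst) and their nuclei counted on 4× images. Treatment had been applied by pin tool the day after seeding as one drug alone or as a fixed anchor-drug dose with five library-drug doses (not always all listed) in √10 steps. Relative viability is the nuclei count of treated wells divided by that of vehicle wells, and values are medians of duplicate plates.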
row,Cell Line,relative viability
1,NCI-H441,0.214
2,LCLC-97TM1,0.172
3,NCI-H2023,0.408
4,A-427,0.473
5,NCI-H460,0.0801
6,NCI-H727,0.725
7,NCI-H1755,0.432
8,NCI-H520,0.217
9,NCI-H2405,0.49
10,SW 1573,0.443
11,NCI-H1395,0.577
12,201T,0.401
13,NCI-H1975,0.497
14,HCC-827,0.495
15,NCI-H2347,0.392
16,NCI-H1355,0.35
17,NCI-H650,0.256
18,CAL-12T,0.402
19,NCI-H1666,0.664
20,EPLC-272H,0.309
21,NCI-H23,0.37
22,NCI-H1915,0.545
23,NCI-H1437,0.316
24,NCI-H322M,0.463
25,NCI-H1792,0.596
26,NCI-H2085,0.464

# Same assay, conditions: first compound 0.253 µM
row,Cell Line,relative viability
1,HCC-78,0.438
2,NCI-H441,0.205
3,LCLC-97TM1,0.216
4,NCI-H2023,0.428
5,A-427,0.531
6,NCI-H460,0.0813
7,NCI-H1755,0.429
8,NCI-H520,0.234
9,NCI-H2405,0.489
10,SW 1573,0.364
11,201T,0.319
12,NCI-H1975,0.416
13,HCC-827,0.435
14,NCI-H2347,0.417
15,NCI-H1355,0.282
16,NCI-H650,0.339
17,CAL-12T,0.414
18,NCI-H1666,0.631
19,EPLC-272H,0.315
20,NCI-H23,0.459
21,NCI-H1915,0.47
22,NCI-H1437,0.331
23,NCI-H322M,0.47
24,NCI-H2085,0.463

# Same assay, conditions: first compound 0.8 µM
row,Cell Line,relative viability
1,HCC-78,0.4
2,NCI-H441,0.261
3,LCLC-97TM1,0.206
4,NCI-H2023,0.424
5,A-427,0.485
6,NCI-H460,0.0708
7,NCI-H727,0.541
8,NCI-H1755,0.412
9,NCI-H520,0.239
10,NCI-H2405,0.488
11,SW 1573,0.43
12,NCI-H1395,0.546
13,201T,0.359
14,NCI-H1975,0.51
15,HCC-827,0.431
16,NCI-H2347,0.413
17,NCI-H1355,0.27
18,NCI-H650,0.322
19,CAL-12T,0.391
20,NCI-H1666,0.546
21,EPLC-272H,0.372
22,NCI-H23,0.518
23,NCI-H1915,0.53
24,NCI-H1437,0.301
25,NCI-H322M,0.565
26,NCI-H1792,0.614
27,NCI-H2085,0.475

# Same assay, conditions: first compound 2.53 µM
row,Cell Line,relative viability
1,HCC-78,0.447
2,NCI-H441,0.224
3,LCLC-97TM1,0.217
4,NCI-H2023,0.355
5,A-427,0.538
6,NCI-H460,0.0785
7,NCI-H1755,0.442
8,NCI-H520,0.261
9,SW 1573,0.426
10,NCI-H1395,0.556
11,201T,0.348
12,NCI-H1975,0.374
13,HCC-827,0.518
14,NCI-H2347,0.444
15,NCI-H1355,0.285
16,NCI-H650,0.342
17,CAL-12T,0.329
18,NCI-H1666,0.584
19,NCI-H23,0.479
20,NCI-H1915,0.524
21,NCI-H1437,0.23
22,NCI-H322M,0.574
23,NCI-H1792,0.624
24,NCI-H2085,0.47

# Same assay, conditions: first compound 8 µM
row,Cell Line,relative viability
1,HCC-78,0.511
2,NCI-H441,0.184
3,LCLC-97TM1,0.276
4,NCI-H2023,0.112
5,A-427,0.5
6,NCI-H460,0.086
7,NCI-H727,0.695
8,NCI-H1755,0.393
9,NCI-H520,0.291
10,NCI-H2405,0.498
11,SW 1573,0.257
12,NCI-H1395,0.606
13,201T,0.336
14,NCI-H1975,0.241
15,HCC-827,0.37
16,NCI-H2347,0.436
17,NCI-H1355,0.284
18,NCI-H650,0.371
19,CAL-12T,0.586
20,NCI-H1666,0.617
21,EPLC-272H,0.332
22,NCI-H23,0.524
23,NCI-H1915,0.492
24,NCI-H1437,0.289
25,NCI-H322M,0.563
26,NCI-H1792,0.672
27,NCI-H2085,0.349

# Compound: CC1=CC(=CC=C1)NC2=NC(=CS2)C3=CC=NC=C3 + N=C(N)NC(=N)NCCc1ccccc1 [Phenformin] (partner 250 µM)
# Experiment: as above
# Settings: first compound 0.08 µM
# Outline: as §1
row,Cell Line,relative viability
1,NCI-H441,0.8
2,LCLC-97TM1,0.424
3,NCI-H2023,0.41
4,A-427,0.355
5,NCI-H460,0.478
6,NCI-H1755,0.505
7,NCI-H520,0.514
8,NCI-H2405,0.344
9,SW 1573,0.316
10,NCI-H1395,0.402
11,201T,0.389
12,NCI-H1975,0.359
13,HCC-827,0.416
14,NCI-H2347,0.387
15,NCI-H1355,0.343
16,NCI-H650,0.426
17,CAL-12T,0.513
18,NCI-H1666,0.526
19,EPLC-272H,0.275
20,NCI-H23,0.787
21,NCI-H1915,0.38
22,NCI-H1437,0.253
23,NCI-H322M,0.63
24,NCI-H1792,0.207
25,NCI-H2085,0.709

# Same assay, conditions: first compound 0.253 µM
row,Cell Line,relative viability
1,HCC-78,0.628
2,NCI-H441,0.782
3,LCLC-97TM1,0.414
4,NCI-H2023,0.33
5,A-427,0.28
6,NCI-H460,0.499
7,NCI-H727,0.376
8,NCI-H1755,0.524
9,NCI-H520,0.538
10,NCI-H2405,0.352
11,SW 1573,0.36
12,NCI-H1395,0.422
13,201T,0.38
14,NCI-H1975,0.362
15,HCC-827,0.383
16,NCI-H2347,0.381
17,NCI-H1355,0.376
18,NCI-H650,0.407
19,CAL-12T,0.518
20,NCI-H1666,0.489
21,EPLC-272H,0.224
22,NCI-H23,0.711
23,NCI-H1915,0.352
24,NCI-H1437,0.25
25,NCI-H322M,0.726
26,NCI-H1792,0.36
27,NCI-H2085,0.67

# Same assay, conditions: first compound 0.8 µM
row,Cell Line,relative viability
1,HCC-78,0.527
2,NCI-H441,0.892
3,LCLC-97TM1,0.456
4,NCI-H2023,0.424
5,A-427,0.355
6,NCI-H460,0.511
7,NCI-H727,0.586
8,NCI-H1755,0.566
9,NCI-H520,0.651
10,NCI-H2405,0.347
11,SW 1573,0.352
12,NCI-H1395,0.46
13,201T,0.44
14,NCI-H1975,0.383
15,HCC-827,0.447
16,NCI-H1355,0.391
17,NCI-H650,0.476
18,CAL-12T,0.604
19,NCI-H1666,0.547
20,EPLC-272H,0.332
21,NCI-H23,0.717
22,NCI-H1915,0.371
23,NCI-H1437,0.309
24,NCI-H322M,0.788
25,NCI-H1792,0.373
26,NCI-H2085,0.723

# Same assay, conditions: first compound 2.53 µM
row,Cell Line,relative viability
1,HCC-78,0.631
2,NCI-H441,0.823
3,LCLC-97TM1,0.456
4,NCI-H2023,0.423
5,A-427,0.326
6,NCI-H460,0.479
7,NCI-H727,0.477
8,NCI-H1755,0.598
9,NCI-H520,0.308
10,NCI-H2405,0.411
11,SW 1573,0.389
12,NCI-H1395,0.367
13,201T,0.375
14,NCI-H1975,0.326
15,HCC-827,0.445
16,NCI-H2347,0.397
17,NCI-H1355,0.429
18,NCI-H650,0.372
19,CAL-12T,0.537
20,NCI-H1666,0.513
21,EPLC-272H,0.307
22,NCI-H23,0.82
23,NCI-H1915,0.372
24,NCI-H1437,0.253
25,NCI-H322M,0.854
26,NCI-H1792,0.309
27,NCI-H2085,0.676

# Same assay, conditions: first compound 8 µM
row,Cell Line,relative viability
1,HCC-78,0.75
2,NCI-H441,0.78
3,LCLC-97TM1,0.483
4,NCI-H2023,0.351
5,A-427,0.244
6,NCI-H460,0.438
7,NCI-H727,0.4
8,NCI-H1755,0.546
9,NCI-H520,0.559
10,NCI-H2405,0.434
11,SW 1573,0.399
12,NCI-H1395,0.407
13,201T,0.433
14,NCI-H1975,0.296
15,HCC-827,0.38
16,NCI-H2347,0.419
17,NCI-H1355,0.362
18,NCI-H650,0.502
19,CAL-12T,0.516
20,NCI-H1666,0.451
21,EPLC-272H,0.294
22,NCI-H23,0.779
23,NCI-H1915,0.372
24,NCI-H1437,0.246
25,NCI-H322M,0.797
26,NCI-H1792,0.252
27,NCI-H2085,0.684
